Results reported in PMC6480306 (General and comparative endocrinology, 2018).

Biological target: T1, zebrafish mPRα (membrane progestin receptor alpha, Paqr7) (Danio rerio, UniProt Q801G2)
T1 sequence (Q801G2 1-354): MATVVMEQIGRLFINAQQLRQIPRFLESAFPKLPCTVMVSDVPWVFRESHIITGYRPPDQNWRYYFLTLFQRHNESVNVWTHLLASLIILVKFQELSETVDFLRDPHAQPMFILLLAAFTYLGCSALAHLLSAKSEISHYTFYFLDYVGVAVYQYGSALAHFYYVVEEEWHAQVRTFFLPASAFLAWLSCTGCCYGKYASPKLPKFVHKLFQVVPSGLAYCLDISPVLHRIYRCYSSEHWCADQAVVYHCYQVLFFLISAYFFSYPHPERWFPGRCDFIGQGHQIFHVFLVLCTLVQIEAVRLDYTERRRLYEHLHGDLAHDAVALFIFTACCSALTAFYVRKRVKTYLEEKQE
Experiment: [3H]-DHP competitive radioligand binding, filtration assay

## C=C[C@]12CCC(=O)C=C1CC[C@H]1[C@@H]3CC[C@H](C(C)=O)[C@@]3(C)CC[C@@H]12 [02–0, l0-ethenyl-l9-norprogesterone]
  IC50: 2000 nM

## C[C@@H](O)[C@@]1(O)CC[C@H]2[C@@H]3CCC4=CC(=O)CC[C@]4(C)[C@H]3CC[C@@]21C [DHP, 17, 20β-dihydroxy-4-pregnen-3-one]
  IC50: ~100 nM
